Test results reported in ChEMBL document CHEMBL5726115, “Triazolo compounds” (2017).

Molecular target: cAMP and cAMP-inhibited cGMP 3',5'-cyclic phosphodiesterase 10A (Homo sapiens, UniProt Q9Y233)
Assay: Inhibition Assay: The human PDE10A full length assay was performed in 96-well micro titer plates. The reaction mixture of 50 μl contained 20 mM HEPES pH=7.5/10 mM MgCl2/0.05 mg/ml BSA (Sigma cat. #A-7906), 50 nM cGMP (Sigma, cat. #G6129) and 50 nM [3H]-cGMP (GE Healthcare, cat. #TRK392 S.A. 13.2 Ci/mmol), 3.75 ng/well PDE10A enzyme (Enzo Life Science, Lausen, Switzerland cat #SE-534) with or without a specific test compound. A range of concentrations of the potential inhibitor was used to generate data for calculating the concentration of inhibitor resulting in 50% of the effect (e.g. IC50, the concentration of the competitor inhibiting PDE10A activity by 50%). Non-specific activity was tested without the enzyme. The reaction was initiated by the addition of the substrate solution (cGMP and [3H]-cGMP) and allowed to progress for 20 minutes at room temperature. The reaction was terminated by adding 25 μl of YSi-SPA scintillation beads (GE Healthcare, cat. #RPNQ0150) in 18 mM zinc sulphate solution (stop reagent). After 1 h under shaking, the plate was centrifuged one minute at 170 g to allow beads to settle. Afterwards, radioactive counts were measured on a Perkin Elmer TopCount Scintillation plate reader.

Sequence of cAMP and cAMP-inhibited cGMP 3',5'-cyclic phosphodiesterase 10A (Q9Y233 whole entry): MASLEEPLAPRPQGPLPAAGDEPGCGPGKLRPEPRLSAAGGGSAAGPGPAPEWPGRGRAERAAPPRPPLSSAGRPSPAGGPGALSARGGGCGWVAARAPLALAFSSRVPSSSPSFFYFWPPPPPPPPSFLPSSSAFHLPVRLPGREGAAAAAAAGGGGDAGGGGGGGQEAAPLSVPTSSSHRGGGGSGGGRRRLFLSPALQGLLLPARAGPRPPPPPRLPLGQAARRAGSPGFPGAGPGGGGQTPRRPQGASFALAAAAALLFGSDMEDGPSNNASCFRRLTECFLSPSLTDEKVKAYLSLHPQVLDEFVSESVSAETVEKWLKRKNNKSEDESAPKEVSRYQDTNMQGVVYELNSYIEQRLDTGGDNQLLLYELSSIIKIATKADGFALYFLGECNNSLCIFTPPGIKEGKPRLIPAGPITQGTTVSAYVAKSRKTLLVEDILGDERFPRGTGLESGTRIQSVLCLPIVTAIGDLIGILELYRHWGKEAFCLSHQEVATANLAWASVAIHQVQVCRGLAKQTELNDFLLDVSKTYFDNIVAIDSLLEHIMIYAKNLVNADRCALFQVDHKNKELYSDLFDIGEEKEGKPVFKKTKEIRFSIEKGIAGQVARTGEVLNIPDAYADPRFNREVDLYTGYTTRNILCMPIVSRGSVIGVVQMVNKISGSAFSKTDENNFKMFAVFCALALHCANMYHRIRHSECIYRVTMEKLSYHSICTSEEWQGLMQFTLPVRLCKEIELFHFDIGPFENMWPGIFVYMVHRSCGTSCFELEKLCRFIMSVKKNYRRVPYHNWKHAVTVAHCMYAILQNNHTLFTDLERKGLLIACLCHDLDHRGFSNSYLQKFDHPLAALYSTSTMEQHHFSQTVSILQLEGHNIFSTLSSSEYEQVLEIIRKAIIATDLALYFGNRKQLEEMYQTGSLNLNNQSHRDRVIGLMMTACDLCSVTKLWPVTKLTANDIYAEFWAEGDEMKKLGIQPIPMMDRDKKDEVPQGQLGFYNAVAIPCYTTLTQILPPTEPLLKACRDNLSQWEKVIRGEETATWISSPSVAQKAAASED

Cc1nc2cc(C(F)(F)F)c(CCc3nc(N4CCCC4)nn3C)nn2c1C
IC50: 165 nM

Cc1cn2nc(C)c(C)c2nc1C#Cc1nc(N2CCCC2)nn1C
IC50: 6.6 nM
